The NIST ThermoML archive (doi:10.1021/je4003515)
± gives the expanded uncertainty stated by the source.

How the values were obtained:
[1] = mn = molality of the nth substance listed, in mol/kg; details: 101 kPa, Liquid; for viscosity: Capillary tube (Ostwald / Ubbelohde) method; for mass density: Vibrating tube method
[2] = refractive index (Na D-line) (dimensionless); mn = molality of the nth substance listed, in mol/kg; details: 298.15 K, 101 kPa, Liquid, Standard Abbe refractometry

Compound: CCO [ethanol] + O
- viscosity ([1]; 293.15 K, m1 = 14): 2.895 ± 0.02 mPa·s
- viscosity ([1]; 293.15 K, m1 = 16): 2.9 ± 0.02 mPa·s
- viscosity ([1]; 293.15 K, m1 = 18): 2.889 ± 0.02 mPa·s
- viscosity ([1]; 293.15 K, m1 = 20): 2.878 ± 0.02 mPa·s
- viscosity ([1]; 293.15 K, m1 = 22): 2.862 ± 0.02 mPa·s
- mass density ([1]; 293.15 K, m1 = 14): 936.706 ± 1 kg/m3
- mass density ([1]; 293.15 K, m1 = 16): 930.583 ± 1 kg/m3
- mass density ([1]; 293.15 K, m1 = 18): 924.182 ± 1 kg/m3
- mass density ([1]; 293.15 K, m1 = 20): 918.792 ± 1 kg/m3
- mass density ([1]; 293.15 K, m1 = 22): 913.462 ± 1 kg/m3
- viscosity ([1]; 298.15 K, m1 = 14): 2.35 ± 0.017 mPa·s
- viscosity ([1]; 298.15 K, m1 = 16): 2.363 ± 0.017 mPa·s
- viscosity ([1]; 298.15 K, m1 = 18): 2.365 ± 0.017 mPa·s
- viscosity ([1]; 298.15 K, m1 = 20): 2.371 ± 0.017 mPa·s
- viscosity ([1]; 298.15 K, m1 = 22): 2.352 ± 0.017 mPa·s
- mass density ([1]; 298.15 K, m1 = 14): 933.024 ± 1 kg/m3
- mass density ([1]; 298.15 K, m1 = 16): 926.799 ± 1 kg/m3
- mass density ([1]; 298.15 K, m1 = 18): 920.298 ± 1 kg/m3
- mass density ([1]; 298.15 K, m1 = 20): 914.849 ± 1 kg/m3
- mass density ([1]; 298.15 K, m1 = 22): 909.466 ± 1 kg/m3
- viscosity ([1]; 303.15 K, m1 = 14): 1.97 ± 0.014 mPa·s
- viscosity ([1]; 303.15 K, m1 = 16): 1.988 ± 0.015 mPa·s
- viscosity ([1]; 303.15 K, m1 = 18): 1.99 ± 0.015 mPa·s
- viscosity ([1]; 303.15 K, m1 = 20): 1.999 ± 0.015 mPa·s
- viscosity ([1]; 303.15 K, m1 = 22): 1.989 ± 0.015 mPa·s
- mass density ([1]; 303.15 K, m1 = 14): 929.265 ± 1 kg/m3
- mass density ([1]; 303.15 K, m1 = 16): 922.942 ± 1 kg/m3
- mass density ([1]; 303.15 K, m1 = 18): 916.351 ± 1 kg/m3
- mass density ([1]; 303.15 K, m1 = 20): 910.842 ± 1 kg/m3
- mass density ([1]; 303.15 K, m1 = 22): 905.406 ± 1 kg/m3
- viscosity ([1]; 308.15 K, m1 = 14): 1.673 ± 0.013 mPa·s
- viscosity ([1]; 308.15 K, m1 = 16): 1.69 ± 0.013 mPa·s
- viscosity ([1]; 308.15 K, m1 = 18): 1.695 ± 0.013 mPa·s
- viscosity ([1]; 308.15 K, m1 = 20): 1.704 ± 0.013 mPa·s
- viscosity ([1]; 308.15 K, m1 = 22): 1.7 ± 0.013 mPa·s
- mass density ([1]; 308.15 K, m1 = 14): 925.437 ± 1 kg/m3
- mass density ([1]; 308.15 K, m1 = 16): 919.015 ± 1 kg/m3
- mass density ([1]; 308.15 K, m1 = 18): 912.337 ± 1 kg/m3
- mass density ([1]; 308.15 K, m1 = 20): 906.77 ± 1 kg/m3
- mass density ([1]; 308.15 K, m1 = 22): 901.281 ± 1 kg/m3
- viscosity ([1]; 313.15 K, m1 = 14): 1.44 ± 0.011 mPa·s
- viscosity ([1]; 313.15 K, m1 = 16): 1.456 ± 0.012 mPa·s
- viscosity ([1]; 313.15 K, m1 = 18): 1.462 ± 0.012 mPa·s
- viscosity ([1]; 313.15 K, m1 = 20): 1.475 ± 0.012 mPa·s
- viscosity ([1]; 313.15 K, m1 = 22): 1.469 ± 0.012 mPa·s
- mass density ([1]; 313.15 K, m1 = 14): 921.529 ± 1 kg/m3
- mass density ([1]; 313.15 K, m1 = 16): 915.018 ± 1 kg/m3
- mass density ([1]; 313.15 K, m1 = 18): 908.255 ± 1 kg/m3
- refractive index ([2]; m1 = 14): 1.355 ± 0.0007
- refractive index ([2]; m1 = 16): 1.3564 ± 0.0007
- refractive index ([2]; m1 = 18): 1.3575 ± 0.0007
- refractive index ([2]; m1 = 20): 1.3583 ± 0.0007
- refractive index ([2]; m1 = 22): 1.3585 ± 0.0007

Compound: CCCO [propan-1-ol] + O
- viscosity ([1]; 293.15 K, m1 = 14): 3.11 ± 0.022 mPa·s
- viscosity ([1]; 293.15 K, m1 = 16): 3.151 ± 0.022 mPa·s
- viscosity ([1]; 293.15 K, m1 = 18): 3.176 ± 0.023 mPa·s
- viscosity ([1]; 293.15 K, m1 = 20): 3.178 ± 0.023 mPa·s
- mass density ([1]; 293.15 K, m1 = 14): 918.103 ± 1 kg/m3
- mass density ([1]; 293.15 K, m1 = 16): 911.211 ± 1 kg/m3
- mass density ([1]; 293.15 K, m1 = 18): 905.417 ± 1 kg/m3
- mass density ([1]; 293.15 K, m1 = 20): 899.512 ± 1 kg/m3
- mass density ([1]; 293.15 K, m1 = 22): 895.376 ± 1 kg/m3
- viscosity ([1]; 298.15 K, m1 = 14): 2.599 ± 0.019 mPa·s
- viscosity ([1]; 298.15 K, m1 = 16): 2.637 ± 0.019 mPa·s
- viscosity ([1]; 298.15 K, m1 = 18): 2.663 ± 0.019 mPa·s
- viscosity ([1]; 298.15 K, m1 = 20): 2.671 ± 0.019 mPa·s
- mass density ([1]; 298.15 K, m1 = 14): 914.486 ± 1 kg/m3
- mass density ([1]; 298.15 K, m1 = 16): 907.532 ± 1 kg/m3
- mass density ([1]; 298.15 K, m1 = 18): 901.687 ± 1 kg/m3
- mass density ([1]; 298.15 K, m1 = 20): 895.724 ± 1 kg/m3
- mass density ([1]; 298.15 K, m1 = 22): 891.557 ± 1 kg/m3
- viscosity ([1]; 303.15 K, m1 = 14): 2.193 ± 0.016 mPa·s
- viscosity ([1]; 303.15 K, m1 = 16): 2.23 ± 0.016 mPa·s
- viscosity ([1]; 303.15 K, m1 = 18): 2.255 ± 0.016 mPa·s
- viscosity ([1]; 303.15 K, m1 = 20): 2.263 ± 0.017 mPa·s
- mass density ([1]; 303.15 K, m1 = 14): 910.811 ± 1 kg/m3
- mass density ([1]; 303.15 K, m1 = 16): 903.797 ± 1 kg/m3
- mass density ([1]; 303.15 K, m1 = 18): 897.899 ± 1 kg/m3
- mass density ([1]; 303.15 K, m1 = 20): 891.885 ± 1 kg/m3
- mass density ([1]; 303.15 K, m1 = 22): 887.682 ± 1 kg/m3
- viscosity ([1]; 308.15 K, m1 = 14): 1.88 ± 0.014 mPa·s
- viscosity ([1]; 308.15 K, m1 = 16): 1.906 ± 0.014 mPa·s
- viscosity ([1]; 308.15 K, m1 = 18): 1.93 ± 0.015 mPa·s
- viscosity ([1]; 308.15 K, m1 = 20): 1.938 ± 0.015 mPa·s
- mass density ([1]; 308.15 K, m1 = 14): 907.075 ± 1 kg/m3
- mass density ([1]; 308.15 K, m1 = 16): 899.995 ± 1 kg/m3
- mass density ([1]; 308.15 K, m1 = 18): 894.048 ± 1 kg/m3
- mass density ([1]; 308.15 K, m1 = 20): 887.984 ± 1 kg/m3
- mass density ([1]; 308.15 K, m1 = 22): 883.751 ± 1 kg/m3
- viscosity ([1]; 313.15 K, m1 = 14): 1.626 ± 0.013 mPa·s
- viscosity ([1]; 313.15 K, m1 = 16): 1.648 ± 0.013 mPa·s
- viscosity ([1]; 313.15 K, m1 = 18): 1.67 ± 0.013 mPa·s
- viscosity ([1]; 313.15 K, m1 = 20): 1.679 ± 0.013 mPa·s
- mass density ([1]; 313.15 K, m1 = 14): 903.277 ± 1 kg/m3
- mass density ([1]; 313.15 K, m1 = 16): 896.13 ± 1 kg/m3
- mass density ([1]; 313.15 K, m1 = 18): 890.133 ± 1 kg/m3
- mass density ([1]; 313.15 K, m1 = 20): 884.02 ± 1 kg/m3
- mass density ([1]; 313.15 K, m1 = 22): 879.756 ± 1 kg/m3
- refractive index ([2]; m1 = 14): 1.364 ± 0.0007
- refractive index ([2]; m1 = 16): 1.3654 ± 0.0007
- refractive index ([2]; m1 = 18): 1.367 ± 0.0007
- refractive index ([2]; m1 = 20): 1.368 ± 0.0007
- refractive index ([2]; m1 = 22): 1.3695 ± 0.0007
